The NIST ThermoML archive (doi:10.1021/je4001894)
± gives the expanded uncertainty stated by the source.

Assay: activity coefficient (dimensionless); of the first substance listed, at infinite dilution; xn = mol fraction of the nth substance listed
Conditions: 101 kPa, Liquid, Chromatography, x1 = 0

SMILES	activity coefficient (323.15 K)	activity coefficient (333.15 K)	activity coefficient (343.15 K)
Cc1ccccc1C [1,2-dimethylbenzene] + CCCC[N+]1(C)CCCC1.O=S(=O)([N-]S(=O)(=O)C(F)(F)F)C(F)(F)F	1.61 ± 0.11	1.64 ± 0.11	1.66 ± 0.11
Cc1ccccc1C [1,2-dimethylbenzene] + CCC[N+]1(C)CCCC1.O=S(=O)([N-]S(=O)(=O)C(F)(F)F)C(F)(F)F	1.78 ± 0.12	1.83 ± 0.12	1.87 ± 0.13
Cc1cccc(C)c1 [1,3-dimethylbenzene] + CCCC[N+]1(C)CCCC1.O=S(=O)([N-]S(=O)(=O)C(F)(F)F)C(F)(F)F	1.78 ± 0.12	1.8 ± 0.12	1.83 ± 0.12
Cc1cccc(C)c1 [1,3-dimethylbenzene] + CCC[N+]1(C)CCCC1.O=S(=O)([N-]S(=O)(=O)C(F)(F)F)C(F)(F)F	1.97 ± 0.13	1.99 ± 0.14	2.05 ± 0.14
Cc1ccc(C)cc1 [1,4-dimethylbenzene] + CCCC[N+]1(C)CCCC1.O=S(=O)([N-]S(=O)(=O)C(F)(F)F)C(F)(F)F	1.78 ± 0.12	1.8 ± 0.12	1.81 ± 0.12
Cc1ccc(C)cc1 [1,4-dimethylbenzene] + CCC[N+]1(C)CCCC1.O=S(=O)([N-]S(=O)(=O)C(F)(F)F)C(F)(F)F	1.96 ± 0.13	2 ± 0.14	2.03 ± 0.14
C1COCCO1 [1,4-dioxane] + CCCC[N+]1(C)CCCC1.O=S(=O)([N-]S(=O)(=O)C(F)(F)F)C(F)(F)F	0.71 ± 0.05	0.72 ± 0.05	0.72 ± 0.05
C1COCCO1 [1,4-dioxane] + CCC[N+]1(C)CCCC1.O=S(=O)([N-]S(=O)(=O)C(F)(F)F)C(F)(F)F	0.74 ± 0.05	0.74 ± 0.05	0.76 ± 0.05
C#CCCCCC [1-heptyne] + CCCC[N+]1(C)CCCC1.O=S(=O)([N-]S(=O)(=O)C(F)(F)F)C(F)(F)F	3.98 ± 0.27	3.98 ± 0.27	3.94 ± 0.27
C#CCCCCC [1-heptyne] + CCC[N+]1(C)CCCC1.O=S(=O)([N-]S(=O)(=O)C(F)(F)F)C(F)(F)F	4.52 ± 0.31	4.52 ± 0.31	4.51 ± 0.31
C#CCCCC [1-hexyne] + CCCC[N+]1(C)CCCC1.O=S(=O)([N-]S(=O)(=O)C(F)(F)F)C(F)(F)F	2.89 ± 0.2	2.87 ± 0.2	2.83 ± 0.19
C#CCCCC [1-hexyne] + CCC[N+]1(C)CCCC1.O=S(=O)([N-]S(=O)(=O)C(F)(F)F)C(F)(F)F	3.35 ± 0.23	3.18 ± 0.22	3.01 ± 0.2
CCC[N+](=O)[O-] [1-nitropropane] + CCCC[N+]1(C)CCCC1.O=S(=O)([N-]S(=O)(=O)C(F)(F)F)C(F)(F)F	0.74 ± 0.05	0.73 ± 0.05	0.73 ± 0.05
CCC[N+](=O)[O-] [1-nitropropane] + CCC[N+]1(C)CCCC1.O=S(=O)([N-]S(=O)(=O)C(F)(F)F)C(F)(F)F	0.77 ± 0.05	0.77 ± 0.05	0.77 ± 0.05
CC(C)CC(C)(C)C [2,2,4-trimethylpentane] + CCCC[N+]1(C)CCCC1.O=S(=O)([N-]S(=O)(=O)C(F)(F)F)C(F)(F)F	19.2 ± 1.3	17.9 ± 1.2	17.1 ± 1.2
CC(C)CC(C)(C)C [2,2,4-trimethylpentane] + CCC[N+]1(C)CCCC1.O=S(=O)([N-]S(=O)(=O)C(F)(F)F)C(F)(F)F	22.5 ± 1.5	22 ± 1.5	21.6 ± 1.5
CC(C)CO [2-methyl-1-propanol] + CCCC[N+]1(C)CCCC1.O=S(=O)([N-]S(=O)(=O)C(F)(F)F)C(F)(F)F	2.37 ± 0.16	2.12 ± 0.14	1.92 ± 0.13
CC(C)CO [2-methyl-1-propanol] + CCC[N+]1(C)CCCC1.O=S(=O)([N-]S(=O)(=O)C(F)(F)F)C(F)(F)F	2.51 ± 0.17	2.29 ± 0.16	2.1 ± 0.14
CCC(C)CC [3-methylpentane] + CCCC[N+]1(C)CCCC1.O=S(=O)([N-]S(=O)(=O)C(F)(F)F)C(F)(F)F	12.3 ± 0.84	11.9 ± 0.81	11 ± 0.75
CCC(C)CC [3-methylpentane] + CCC[N+]1(C)CCCC1.O=S(=O)([N-]S(=O)(=O)C(F)(F)F)C(F)(F)F	14.3 ± 0.98	13.5 ± 0.92	11.7 ± 0.8
CC#N [acetonitrile] + CCCC[N+]1(C)CCCC1.O=S(=O)([N-]S(=O)(=O)C(F)(F)F)C(F)(F)F	0.52 ± 0.04	0.51 ± 0.04	0.5 ± 0.04
c1ccccc1 [benzene] + CCCC[N+]1(C)CCCC1.O=S(=O)([N-]S(=O)(=O)C(F)(F)F)C(F)(F)F	0.92 ± 0.06	0.93 ± 0.06	0.94 ± 0.06
c1ccccc1 [benzene] + CCC[N+]1(C)CCCC1.O=S(=O)([N-]S(=O)(=O)C(F)(F)F)C(F)(F)F	0.99 ± 0.06	1.01 ± 0.06	1.03 ± 0.06
